Reference: patent US20030215462A1, “Use of UGT inhibitors to increase bioavailability” (priority 2001, published 2003)
Several values for one entry are separate records, joined by “and”; a condition that tells them apart may be missing. Equal entries are not always repeated.

Test system: UGT enzymes of human liver microsomes
Experiment: Inhibition of raloxifene glucuronidation (G1, G2) in human liver microsomes
Format: biochemical
Settings: not given
From the text: Compounds were eluted using a binary solvent gradient system. […] Solvent B was methanol. […] Detection was at 280 nm.

| Structure (SMILES) | % of control metabolism, raloxifene G1 | % of control metabolism, raloxifene G2 | % of control metabolism (SD, n = 3), raloxifene glucuronide G1 | % of control metabolism (SD, n = 3), raloxifene glucuronide G2 |
| --- | --- | --- | --- | --- |
| Cc1cc(=O)oc2cc(O)ccc12 [4-Methylumbelliferone, reference compound] | 35 (3), 39 (2) % and 37 (1), 40 (1) % and 51 (1), 53 (2) % and 69 (4), 71 (8) % | 35 (3), 39 (2) % and 37 (1), 40 (1) % and 51 (1), 53 (2) % and 69 (4), 71 (8) % | – | – |
| Cc1ccc(C(C)C)cc1O [Carvacrol] | – | – | 37 (1) % and 64 (1) % | 33 (0) % and 60 (1) % |

Same assay, conditions: G1; inhibitor 50 μM; raloxifene 50 μM, human liver microsomes 250 μg/ml, 15 min

| Structure (SMILES) | % of control metabolism (SD, n = 3), raloxifene glucuronide G1 |
| --- | --- |
| O=C1C[C@@H](c2ccc(O)cc2)Oc2cc(O)cc(O)c21 [Naringenin] | 54 (4) % |

Same assay, conditions: G1; inhibitor 100 μM; raloxifene 50 μM, human liver microsomes 250 μg/ml, 15 min

| Structure (SMILES) | % of control metabolism (SD, n = 3), raloxifene glucuronide G1 |
| --- | --- |
| COc1cc(CNC(=O)CCCC/C=C/C(C)C)ccc1O [Capsaicin] | 55 (4) % |
| COc1cc(CNC(=O)CCCCCCC(C)C)ccc1O [Dihydrocapsaicin] | 49 (1) % |
| O=C1C[C@@H](c2ccc(O)cc2)Oc2cc(O)cc(O)c21 [Naringenin] | 34 (2) % |

Same assay, conditions: G1; inhibitor 500 μM; raloxifene 50 μM, human liver microsomes 250 μg/ml, 15 min

| Structure (SMILES) | % of control metabolism (SD, n = 3), raloxifene glucuronide G1 |
| --- | --- |
| COc1cc(CNC(=O)CCCC/C=C/C(C)C)ccc1O [Capsaicin] | 26 (1) % |
| COc1cc(CNC(=O)CCCCCCC(C)C)ccc1O [Dihydrocapsaicin] | 18 (1) % |

Same assay, conditions: G2; inhibitor 50 μM; raloxifene 50 μM, human liver microsomes 250 μg/ml, 15 min

| Structure (SMILES) | % of control metabolism (SD, n = 3), raloxifene glucuronide G2 |
| --- | --- |
| O=C1C[C@@H](c2ccc(O)cc2)Oc2cc(O)cc(O)c21 [Naringenin] | 71 (9) % |

Same assay, conditions: G2; inhibitor 100 μM; raloxifene 50 μM, human liver microsomes 250 μg/ml, 15 min

| Structure (SMILES) | % of control metabolism (SD, n = 3), raloxifene glucuronide G2 |
| --- | --- |
| COc1cc(CNC(=O)CCCC/C=C/C(C)C)ccc1O [Capsaicin] | 69 (4) % |
| COc1cc(CNC(=O)CCCCCCC(C)C)ccc1O [Dihydrocapsaicin] | 68 (2) % |
| O=C1C[C@@H](c2ccc(O)cc2)Oc2cc(O)cc(O)c21 [Naringenin] | 40 (2) % |

Same assay, conditions: G2; inhibitor 500 μM; raloxifene 50 μM, human liver microsomes 250 μg/ml, 15 min

| Structure (SMILES) | % of control metabolism (SD, n = 3), raloxifene glucuronide G2 |
| --- | --- |
| COc1cc(CNC(=O)CCCC/C=C/C(C)C)ccc1O [Capsaicin] | 33 (3) % |
| COc1cc(CNC(=O)CCCCCCC(C)C)ccc1O [Dihydrocapsaicin] | 26 (1) % |

Target: T1, UGT enzymes of human liver microsomes (Homo sapiens, UniProt P16662)
T1 construct: residual metabolism (percentage of control), zidovudine glucuronidation; other: liver lot 062101; residual metabolism (percentage of control), zidovudine glucuronidation; residual metabolism (percentage of control)
T1 sequence (P16662 1-529): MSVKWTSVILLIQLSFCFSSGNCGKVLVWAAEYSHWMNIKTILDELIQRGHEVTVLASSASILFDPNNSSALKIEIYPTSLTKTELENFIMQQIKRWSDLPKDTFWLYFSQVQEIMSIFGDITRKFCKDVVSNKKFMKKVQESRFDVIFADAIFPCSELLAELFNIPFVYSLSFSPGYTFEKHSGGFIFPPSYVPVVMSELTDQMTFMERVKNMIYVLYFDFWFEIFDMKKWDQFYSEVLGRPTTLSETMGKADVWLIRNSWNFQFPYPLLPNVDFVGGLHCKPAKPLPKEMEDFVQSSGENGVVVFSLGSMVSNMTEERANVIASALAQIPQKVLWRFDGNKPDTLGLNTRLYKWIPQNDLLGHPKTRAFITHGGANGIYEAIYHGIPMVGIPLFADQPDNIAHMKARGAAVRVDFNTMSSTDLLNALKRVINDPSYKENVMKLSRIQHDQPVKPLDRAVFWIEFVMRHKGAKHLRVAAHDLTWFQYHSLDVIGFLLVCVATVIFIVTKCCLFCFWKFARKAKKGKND
Experiment: Inhibition of zidovudine glucuronidation in human liver microsomes
Format: biochemical
Settings: liver lot 062101; inhibitor 100 μM
Procedure: Compounds were eluted using a binary solvent gradient system where solvent A was dilute phosphoric acid (pH 3) and solvent B was acetonitrile.
Standardized incubations utilized 500 μM zidovudine substrate, 1 mg/ml microsomal protein, 5 mM UDPGA and a 30 min incubation time. […] Int.

| Structure (SMILES) | residual metabolism (percentage of control), zidovudine glucuronidation |
| --- | --- |
| Cc1ccc(C(C)C)cc1O [Carvacrol] | 94 (1) % |

Same assay, conditions: liver lot 062101; inhibitor 200 μM

| Structure (SMILES) | residual metabolism (percentage of control), zidovudine glucuronidation |
| --- | --- |
| Cc1ccc(C(C)C)cc1O [Carvacrol] | 75 (3) % |
| O=C1C[C@@H](c2ccc(O)cc2)Oc2cc(O)cc(O)c21 [Naringenin] | 64 (3) % |

Same assay, conditions: liver lot 062101; inhibitor 500 μM

| Structure (SMILES) | residual metabolism (percentage of control), zidovudine glucuronidation |
| --- | --- |
| Cc1cc(=O)oc2cc(O)ccc12 [4-Methylumbelliferone, reference compound] | 81 (2) % |
| COc1cc(CNC(=O)CCCC/C=C/C(C)C)ccc1O [Capsaicin] | 57 (4) % |
| Cc1ccc(C(C)C)cc1O [Carvacrol] | 50 (3) % and 45 (0) % |
| COc1cc(CNC(=O)CCCCCCC(C)C)ccc1O [Dihydrocapsaicin] | 50 (1) % |
| O=C1C[C@@H](c2ccc(O)cc2)Oc2cc(O)cc(O)c21 [Naringenin] | 48 (7) % and 34 (4) % |

Same assay, conditions: liver lot 062101; inhibitor 1000 μM

| Structure (SMILES) | residual metabolism (percentage of control), zidovudine glucuronidation |
| --- | --- |
| COc1cc(CNC(=O)CCCC/C=C/C(C)C)ccc1O [Capsaicin] | 34 (1) % |
| Cc1ccc(C(C)C)cc1O [Carvacrol] | 20 (1) % |
| COc1cc(CNC(=O)CCCCCCC(C)C)ccc1O [Dihydrocapsaicin] | 42 (2) % |
| O=C1C[C@@H](c2ccc(O)cc2)Oc2cc(O)cc(O)c21 [Naringenin] | 15 (3) % |

Test system: T2, UGT enzymes of human liver microsomes
T2 construct: other: liver 062101
Experiment: Inhibition of 2ME2 glucuronidation (MG1, MG2) in human liver microsomes
Format: biochemical
Settings: liver 062101; 2ME2 50 μM; inhibitor 25 μM
From the text: (§1) Compounds were eluted using a binary solvent gradient system where solvent A was dilute phosphoric acid (pH 3) and solvent B was 80:20 acetonitrile-methanol. […] Detection was at 280 nm.

| Structure (SMILES) | residual metabolism (% of control), 2ME2 MG1 | residual metabolism (% of control), 2ME2 MG2 |
| --- | --- | --- |
| O=C1C[C@@H](c2ccc(O)cc2)Oc2cc(O)cc(O)c21 [Naringenin] | 76 (1) % | 53 (4) % |

Same assay, conditions: liver 062101; 2ME2 50 μM; inhibitor 50 μM

| Structure (SMILES) | residual metabolism (% of control), 2ME2 MG1 | residual metabolism (% of control), 2ME2 MG2 |
| --- | --- | --- |
| O=C1C[C@@H](c2ccc(O)cc2)Oc2cc(O)cc(O)c21 [Naringenin] | 47 (3) % | 26 (5) % |

Same assay, conditions: liver 062101; 2ME2 50 μM; inhibitor 100 μM

| Structure (SMILES) | residual metabolism (% of control), 2ME2 MG1 | residual metabolism (% of control), 2ME2 MG2 |
| --- | --- | --- |
| O=C1C[C@@H](c2ccc(O)cc2)Oc2cc(O)cc(O)c21 [Naringenin] | 21 (4) % | 19 (0) % |

Test system: UGT enzymes of pooled human jejunum microsomes
Experiment: Inhibition of 2ME2 glucuronidation (MG1) in pooled human jejunum microsomes
Format: biochemical
Settings: jejunum HJ61; 2ME2 50 μM; inhibitor 50 μM
From the text: as §1

| Structure (SMILES) | residual metabolism (% of control), 2ME2 MG1 |
| --- | --- |
| O=C1C[C@@H](c2ccc(O)cc2)Oc2cc(O)cc(O)c21 [Naringenin] | 78 (2) % |

Same assay, conditions: jejunum HJ61; 2ME2 50 μM; inhibitor 100 μM

| Structure (SMILES) | residual metabolism (% of control), 2ME2 MG1 |
| --- | --- |
| O=C1C[C@@H](c2ccc(O)cc2)Oc2cc(O)cc(O)c21 [Naringenin] | 79 (5) % |

Test system: T3, UGT enzymes of human liver microsomes
T3 construct: percentage of control metabolism, 7-HFC glucuronidation; percentage of control metabolism, 7-HFC glucuronidation
Experiment: Inhibition of 7-HFC glucuronidation in human liver microsomes
Format: biochemical
Settings: inhibitor 50 μM

| Structure (SMILES) | percentage of control metabolism, 7-HFC glucuronidation |
| --- | --- |
| COc1cc(CNC(=O)CCCC/C=C/C(C)C)ccc1O [Capsaicin] | 69 (1) % |

Same assay, conditions: inhibitor 50 μM; 7-HFC 50 μM, human liver microsomes 100 μg/ml, 15 min

| Structure (SMILES) | % of control metabolism (SD, n = 3), 7-HFC glucuronidation |
| --- | --- |
| COc1cc(CNC(=O)CCCC/C=C/C(C)C)ccc1O [Capsaicin] | 69 (1) % |

Same assay, conditions: inhibitor 100 μM

| Structure (SMILES) | percentage of control metabolism, 7-HFC glucuronidation |
| --- | --- |
| Cc1cc(=O)oc2cc(O)ccc12 [4-Methylumbelliferone, reference compound] | 78 (1) % |
| COc1cc(CNC(=O)CCCC/C=C/C(C)C)ccc1O [Capsaicin] | 53 (1) % and 57 (0) % |
| Cc1ccc(C(C)C)cc1O [Carvacrol] | 79 (1) % |
| COc1cc(CNC(=O)CCCCCCC(C)C)ccc1O [Dihydrocapsaicin] | 60 (3) % |

Same assay, conditions: inhibitor 100 μM; 7-HFC 50 μM, human liver microsomes 100 μg/ml, 15 min

| Structure (SMILES) | % of control metabolism (SD, n = 3), 7-HFC glucuronidation |
| --- | --- |
| Cc1cc(=O)oc2cc(O)ccc12 [4-Methylumbelliferone, reference compound] | 78 (1) % |
| COc1cc(CNC(=O)CCCC/C=C/C(C)C)ccc1O [Capsaicin] | 53 (1), % and 57 (0) % |
| Cc1ccc(C(C)C)cc1O [Carvacrol] | 79 (1) % |
| COc1cc(CNC(=O)CCCCCCC(C)C)ccc1O [Dihydrocapsaicin] | 60 (3) % |

Same assay, conditions: inhibitor 200 μM

| Structure (SMILES) | percentage of control metabolism, 7-HFC glucuronidation |
| --- | --- |
| Cc1cc(=O)oc2cc(O)ccc12 [4-Methylumbelliferone, reference compound] | 64 (1) % |
| COc1cc(CNC(=O)CCCC/C=C/C(C)C)ccc1O [Capsaicin] | 42 (1) % and 44 (1) % |
| Cc1ccc(C(C)C)cc1O [Carvacrol] | 63 (0) % |
| COc1cc(CNC(=O)CCCCCCC(C)C)ccc1O [Dihydrocapsaicin] | 52 (2) % |

Same assay, conditions: inhibitor 200 μM; 7-HFC 50 μM, human liver microsomes 100 μg/ml, 15 min

| Structure (SMILES) | % of control metabolism (SD, n = 3), 7-HFC glucuronidation |
| --- | --- |
| Cc1cc(=O)oc2cc(O)ccc12 [4-Methylumbelliferone, reference compound] | 64 (1) % |
| COc1cc(CNC(=O)CCCC/C=C/C(C)C)ccc1O [Capsaicin] | 42 (1), % and 44 (1) % |
| Cc1ccc(C(C)C)cc1O [Carvacrol] | 63 (0) % |
| COc1cc(CNC(=O)CCCCCCC(C)C)ccc1O [Dihydrocapsaicin] | 52 (2) % |

Same assay, conditions: inhibitor 500 μM

| Structure (SMILES) | percentage of control metabolism, 7-HFC glucuronidation |
| --- | --- |
| Cc1cc(=O)oc2cc(O)ccc12 [4-Methylumbelliferone, reference compound] | 45 (1) % and 47 (2) % |
| COc1cc(CNC(=O)CCCC/C=C/C(C)C)ccc1O [Capsaicin] | 39 (0) % |
| Cc1ccc(C(C)C)cc1O [Carvacrol] | 31 (1) % |
| COc1cc(CNC(=O)CCCCCCC(C)C)ccc1O [Dihydrocapsaicin] | 42 (2) % |

Same assay, conditions: inhibitor 500 μM; 7-HFC 50 μM, human liver microsomes 100 μg/ml, 15 min

| Structure (SMILES) | % of control metabolism (SD, n = 3), 7-HFC glucuronidation |
| --- | --- |
| Cc1cc(=O)oc2cc(O)ccc12 [4-Methylumbelliferone, reference compound] | 45 (1), % and 47 (2) % |
| COc1cc(CNC(=O)CCCC/C=C/C(C)C)ccc1O [Capsaicin] | 39 (0) % |
| Cc1ccc(C(C)C)cc1O [Carvacrol] | 31 (1) % |
| COc1cc(CNC(=O)CCCCCCC(C)C)ccc1O [Dihydrocapsaicin] | 42 (2) % |
| O=C1C[C@@H](c2ccc(O)cc2)Oc2cc(O)cc(O)c21 [Naringenin] | 63 (1) % |
